{"source": "patent US7001770B1", "about": "“Calpain inhibitors and their applications” (priority 1998, dated 2006)", "key": {"[1]": {"system": "DLD1 cells", "assay": "G0/G1 cell cycle arrest by BrdU labeling, flow cytometry", "type": "cell-based", "settings": "5 μM CI-1 for 17 hours, 2 hour pulse; 35% without calpain treatment", "procedure": "(§1) In order to determine any increases in p53 function in response to calpain inhibitor 1, the quantity of cells undergoing G0/G1 cell cycle arrest in response to CI-1 administration, was assayed by bromodeoxyuridine labeling of cells. Each of the cell lines described in Example 2 above were exposed to a concentration of 0 or 5 μM CI-1 (in DMF) as described in Example 3 above. Cell lines treated with DMF alone or 5 μM final concentration of calpain inhibitor 1 for 17 hours were pulse labeled with a final concentration of 10 μM bromodeoxyuridine (Boehringer Mannheim) for two hours. Cells were harvested for bivariate BrdU/DNA flow cytometric analysis by fixation in 70% ethanol, followed digestion with 0.08% pepsin for 30 minutes at 37 degrees. Cells were centrifuged at 1500 RPM, and 2N HCL was added. Cells were incubated at 37 degrees for 20 minutes, followed by addition of 1M sodium borate. Cells were washed in IFA/tween 20 (0.01 M HEPES, 0.005% sodium azide, 0.5% tween 20, 5% FBS, […]), and anti-BrdU antibody, diluted 1:10 in IFA without tween 20, was added for 30 minutes. Cells were washed in IFA/tween 20, and incubated in IFA/tween 20/RNase for 15 minutes at 37 degrees.\n(§2) Cells that had incorporated BrdU were stained using a FITC conjugated monoclonal antibody to BrdU (commercially available from Becton-Dickinson) and detected by FACS analysis on a FACScan FACS machine (commercially available from Becton Dickinson)."}, "[2]": {"system": "HLF cells", "assay": "G0/G1 cell cycle arrest by BrdU labeling, flow cytometry", "type": "cell-based", "settings": "5 μM CI-1 for 17 hours, 2 hour pulse; DMF control 42%", "procedure": "as §1, §2"}, "[3]": {"system": "RKO cells", "assay": "G0/G1 cell cycle arrest by BrdU labeling, flow cytometry", "type": "cell-based", "settings": "5 μM CI-1 for 17 hours, 2 hour pulse; DMF control 47%", "procedure": "as §1, §2"}, "[4]": {"system": "SK-Hep1 cells", "assay": "G0/G1 cell cycle arrest by BrdU labeling, flow cytometry", "type": "cell-based", "settings": "5 μM CI-1 for 17 hours, 2 hour pulse; DMF control 34%", "procedure": "as §1, §2"}, "[5]": {"system": "HLF cells", "assay": "Infectivity: copies of rAd-p53 DNA by PCR", "type": "cell-based", "procedure": "The effects of the use of calpain inhibitors, particularly CI-1, were investigated in their ability to increase the infectivity of the HLF tumor cell line to rAd-p53. HLF cell lines were prepared in substantial accordance with the teaching of example 6 herein. The cells were exposed to two concentrations of rAd-p53 in the presence and absence of 10 μM CI-1. The total number of copies of rAd-p53 DNA were determined by PCR as described in Example 6. The results of these experiments are presented in Table 4 below and in graphical form in FIG. 7 of the attached drawings.\nA similar experiment was conducted to determine the effect of pre-treatment of the cells with the calpain inhibitor. The cell lines were prepared as indicated above. In this experiment, one group of cells was pretreated with a 10 μM concentration of CI-1 for a period of 6 hours prior to exposure to the Ad-p53. The control sample was not pretreated. The results of these experiments are presented in Table 5 below and in graphical form in FIG. 7 of the attached drawings.\nThe following materials were obtained from Perkin Elmer Corporation under Part No. N808-0028: Gene Amp 10× Taqman Buffer A, 25 mM MgCl2, 5 μM Oligonucleotide Primer “A”, 5 μM Oligonucleotide Primer “B”, 5 units/mL AmpliTaq® Gold DNA Polymerase, 10 μM Taqman Probe. Deoxynucleotide Triphosphates, dATP, dCTP, and dGTP are 10 mM. dUTP is 20 mM. […]"}, "[6]": {"system": "proteasome", "settings": "below 50 μM primarily an inhibitor of calpain; cited from earlier work"}}, "note": "Square brackets hold non-standard residues; d marks the D form. Peptide text beside a SMILES is read from it. Nle = CCCC[C@H](N)C(=O)O", "data": [{"smiles": "CCCC[C@@H](C=O)NC(=O)[C@H](CC(C)C)NC(=O)[C@H](CC(C)C)NC(C)=O", "note": "[CI-1, N-acetyl-leu-leu-norleucinal] (Ac-Leu-Leu-[Nle]-aldehyde)", "values": [{"measurement": "cells incorporating BrdU", "setting": "[1]", "result": "about 25%"}, {"measurement": "cells incorporating BrdU label", "setting": "[2]", "result": 35, "unit": "%"}, {"measurement": "cells incorporating BrdU label", "setting": "[3]", "result": 16, "unit": "%"}, {"measurement": "cells incorporating BrdU label", "setting": "[4]", "result": 8, "unit": "%"}, {"measurement": "increase in intracellular viral DNA", "setting": "[5]; 10 μM CI-1, no pre-treatment, viral concentration 1×10^7 and 1×10^8 particles", "result": 50, "unit": "fold"}, {"measurement": "infectivity of the cells to the virus relative to untreated cells", "setting": "[5]; 6 hour pretreatment with 10 μM CI-1, ACN53 3×10^7", "result": "approximately 130 times"}, {"measurement": "concentration above which CI-1 inhibits proteasome function", "setting": "[6]", "result": "above 50 μM"}]}]}
